Measurements as given in patent US20140200825A1, “Method for predicting whether a cancer patient will not benefit from platinum-based chemotherapy agents” (Biodesix, Inc., priority 2012, published 2014).

What was measured:
Assay type in all cases: in vivo, human
[1] = tested on: advanced non-small cell lung cancer (NSCLC); test: LCCC0512 study, gemcitabine arm, outcome by VeriStrat group; settings: for median PFS: NSCLC patients treated with gemcitabine alone
Method: The LCCC0512 study was a randomized phase II trial of first-line treatment with gemcitabine, erlotinib or the combination in elderly (over 70 years old) patients with advanced non-small cell lung cancer (NSCLC). Patients had stage IIIB or IV NSCLC and ECOG performance status of 0-2. Patients were randomized to receive either a maximum of 4 cycles of gemcitabine (1200 mg/m^2 days 1,8 every 21 days), 150 mg erlotinib daily, or a maximum of 4 cycles of gemcitabine (1000 mg/m^2 days 1,8 every 21 days) with concurrent 100 mg erlotinib daily. Primary endpoint was progression-free survival at 6 months. Patients randomized to receive gemcitabine monotherapy were encouraged to continue on study to receive erlotinib after progression. A total of 146 patients were enrolled. No significant differences in PFS or OS were found between treatment arms.
Pretreatment serum or plasma samples from patients in the LCCC0512 trial were available for VeriStrat testing. 124 samples were received. Sixty four samples were classified as VeriStrat Good, 39 as VeriStrat Poor and 7 as Indeterminate (undefined/equivocal classification). Of the remaining samples 13 could not be processed due to hemolysis and data could not be collected from one sample. For 5 samples where VeriStrat testing was performed, the samples could not be matched to clinical data from the trial. This left 98 samples with VeriStrat classification of Good or Poor and clinical data for statistical analysis. The majority of the samples tested were plasma, but where plasma was not available for a few patients, serum samples were used. Of the samples on which VeriStrat testing yielded a result of Good or Poor only 5 were identified as serum.
Survival analysis was carried out using SAS Enterprise Guide (SAS 9.2). Difference between groups was assessed using log-rank p values. Both univariate and multivariate hazard ratios were evaluated using Cox proportional hazard models. Kaplan-Meier plots and p values for contingency tables were generated using PRISM (GraphPad). For purposes of this disclosure, the data of interest pertain to the “gemcitabine” arm.

ovarian cancer = test: Ovarian cancer study, carboplatin and paclitaxel after surgery, outcome by VeriStrat group
Method: The data shown in FIGS. 7A and 7B reflect VeriStrat testing on a subset of 96 patients from a larger study of about 160 patients. In this study, serum samples were taken from ovarian cancer patients before surgery and retrospectively analyzed with the VeriStrat test. After surgery, the patients were treated with carboplatin and paclitaxel.

NSCLC = test: Subgroup of NSCLC patients treated with docetaxel, overall survival by VeriStrat group; settings: between VeriStrat Good and VeriStrat Poor patients, FIG. 6
Excerpt: FIG. 6 is a Kaplan-Meier plot of overall survival for a subgroup analysis of one of the cohorts studied in Taguchi et al., Mass spectrometry to classify non-small-cell lung cancer patients for clinical outcome after treatment with epidermal growth factor receptor tyrosine kinase inhibitors: a multicohort cross-institutional study.
Given our previous experience with VeriStrat separation in NSCLC and other cancers, we believe that the difference shown in FIGS. 1-4 and 7A-7B lies principally in the Poor group—i.e., that they probably benefit very little from the combination of gemcitabine+cisplatin (or possibly other combinations of chemotherapy based on a platinum agent), but can get outcomes similar to Good patients if they receive gemcitabine alone, or another non-platinum agent, for example, docetaxel. Our results in a subgroup of NSCLC patients treated with docetaxel show no difference in overall survival between VeriStrat Good and VeriStrat Poor patients (hazard ratio 1.03, p=0.95, see FIG. 6 for a Kaplan-Meier plot)

[2] = between VeriStrat groups, gemcitabine alone

Nc1ccn([C@@H]2O[C@H](CO)[C@@H](O)C2(F)F)c(=O)n1 [gemcitabine]
median PFS ([1]; VeriStrat Good group): 133 days | median OS ([1]; VeriStrat Good group, gemcitabine alone): 201 days | median PFS ([1]; VeriStrat Poor group): 137 days | median OS ([1]; VeriStrat Poor group, gemcitabine alone): 197 days | hazard ratio (HR), OS by VeriStrat group [1, 2]: 0.82 | hazard ratio (HR), PFS by VeriStrat group [1, 2]: 1.21

carboplatin and paclitaxel
median disease free survival time (ovarian cancer; VeriStrat Good patients): 20 months | median overall survival time (ovarian cancer; VeriStrat Good patients): undefined | Hazard Ratio, disease free survival (ovarian cancer; VeriStrat Good vs Poor, FIG. 7A): 0.4906 | hazard ratio, overall survival (ovarian cancer; VeriStrat Good vs Poor, FIG. 7B): 0.3061 | median disease free survival time (ovarian cancer; VeriStrat Poor patients): 11 months | median overall survival time (ovarian cancer; VeriStrat Poor patients): 21 months

CC(=O)O[C@@]12CO[C@@H]1C[C@H](O)[C@@]1(C)C(=O)[C@H](O)C3=C(C)[C@@H](OC(=O)[C@H](O)[C@@H](NC(=O)OC(C)(C)C)c4ccccc4)C[C@@](O)([C@@H](OC(=O)c4ccccc4)[C@H]21)C3(C)C [docetaxel]
hazard ratio, overall survival (NSCLC): 1.03
